Where two headings read alike, the source gives them in different places.
Key:
[1] = Rat in vivo pharmacokinetics study after oral administration of product A, B or C; design: species or system Male Sprague-Dawley (SD) rats; AUC 0→t in product C group, increased to % compared to that in product A or B groups: concentration or dose not given beside the values; settings: for AUC(0-t) / AUC(0-inf) / MRT / Tmax / half-life / Cmax: male, Sprague-Dawley, rat, plasma; for AUC(0-t) / AUC(0-inf) / MRT / Tmax / half-life: 10 mL·kg^−1; for AUC(0-t): oral product C group; for AUC(0-inf) / MRT / Tmax / half-life / Cmax: po, 10 mL·kg^−1, rats; for half-life: read-out: T 1/2z; for Cmax: mean±SD; for AUC 0→t in product C group, increased to % compared to that in product A or B groups: product C versus product A or B
Procedure: Product A (extract mixed with FLJ extract and water, (1∶1, v / v )), product B (extract mixed with FF extract and water, (1∶1, v / v )) and product C (extract mixed with FLJ and FF extracts, (1∶1, v / v )) were given to oral administration to rats, respectively.
Male SD rats (∼250 g) were kept in an environmentally controlled breeding room (temperature: 20±2°C, relative humidity: 60±5%) for 1 week. […] The rats were randomly divided into three groups with no less than six rats in each group to receive various administrations at a single oral dose (10 mL·kg^−1) by gastric gavage. […] Subsequently, plasma was prepared by centrifugation at 1,816×g, 4°C for 7 min, and immediately analyzed or stored at −70°C for further analysis.
The main pharmacokinetic parameters including the peak plasma concentration (C max), the time to C max (T max), the AUC from 0 to infinity (AUC 0–∞), the AUC form 0 to time (AUC 0–t), mean residence time (MRT), and terminal elimination half-life (T 1/2z) were calculated by the non-compartmental analysis of plasma concentration vs. time data using the “DAS 2.1.1” software (Mathematical Pharmacology Professional Committee of China, Shanghai, China).

P-gp, MRP2 and BCRP = tested on: P-gp, MRP2 and BCRP; design: method as in PMID 24035225, PMID 25442264; settings: previous study; ref [21]–[22]; cited from earlier work
Caco-2 cells = test: In vitro Caco-2 monolayer model, apical to basolateral transport (P app); assay type: in vitro ADME, human; settings: Caco-2 monolayer, HBSS pH 6.0, apical to basolateral
Procedure: Caco-2 cells were cultured in high glucose DMEM with 10% fetal bovine serum, 1% nonessential amino acids. Cells were cultured in a humidified atmosphere of 5% CO2 at 37°C. After reaching 80% confluens, Caco-2 cells were harvested with 0.05% trypsin-EDTA solution and seeded on top of CC inserts in 6-well plates, which has a surface area of 4.2 cm^2, at a density of 1.0×10^5 cells/cm^2. The protocols for cell culture in Transwell inserts were similar to those described previously.
Hank’s balanced salt solution (HBSS) was used as the transport buffer for the transport study in Caco-2 cells monolayer model. It was prepared by dissolving 9.5 grams of commercial available HBSS powder in 1000 mL water.
Cell culture experiments were described previously. Briefly, after culture medium was aspirated, the cell monolayers were washed three times with blank HBSS. […] The monolayers were incubated with the blank HBSS for 1 h with 37°C. Thereafter the incubation medium was aspirated. Afterwards, a solution containing the compound was loaded onto the apical side. The amounts of transported compound were measured as a function of time. […] The samples were taken at 0, 1, 2, 3 and 4 h after incubation. At the end of the transport experiment, integrity of the monolayer was monitored by TEER value.

[2] = single oral dose 10 mL·kg^−1 of product A (FLJ extract and water 1:1)
[3] = single oral dose 10 mL·kg^−1 of product C (FLJ and FF extracts 1:1)
[4] = single oral dose 10 mL·kg^−1 of product B (FF extract and water 1:1)

## O=C(C=Cc1ccc(O)c(O)c1)OC1CC(O)(C(=O)O)CC(O)C1OC(=O)C=Cc1ccc(O)c(O)c1 (stereo not drawn) [3,4-dicaffeoylquinic acid]
[1]; rats
  AUC(0-t): 24.4 ng·h/mL
[1]; oral product A
  AUC(0-inf): 22.9 ng·h/mL
  MRT: 7.03 h
  Tmax: 0.25 h
  half-life: 4.92 ± 0.617 h
[1]; oral product C
  AUC(0-inf): 38.8 ng·h/mL
  MRT: 8.95 h
  Tmax: 0.2 h
  half-life: 6.82 ± 2.38 h
[1]; [2]
  Cmax: 4.79 ± 1.87 ng/mL
[1]; [3]
  Cmax: 12.5 ± 4.07 ng/mL
[1]; rats, oral
  AUC 0→t in product C group, increased to % compared to that in product A or B groups: 318%
P-gp, MRP2 and BCRP
  efflux transporters influencing the intestinal absorption: influenced by P-gp, MRP2 and BCRP
Caco-2 cells
  P app in product C group, % compared to that in product A group: 137%

## O=C(/C=C/c1ccc(O)c(O)c1)O[C@@H]1C[C@](O)(C(=O)O)C[C@@H](OC(=O)/C=C/c2ccc(O)c(O)c2)[C@H]1O [3,5-dicaffeoylquinic acid]
[1]; rats
  AUC(0-t): 82.4 ng·h/mL
[1]; oral product A
  AUC(0-inf): 71.5 ng·h/mL
  MRT: 7.3 h
  half-life: 4.87 ± 1.29 h
[1]; oral product C
  AUC(0-inf): 89.7 ng·h/mL
  MRT: 9.63 h
  Tmax: 0.167 h
  half-life: 7.33 ± 0.79 h
[1]; [2]
  Cmax: 27.6 ± 4.73 ng/mL
[1]; [3]
  Cmax: 30.8 ± 5.66 ng/mL
[1]; rats, oral
  AUC 0→t in product C group, increased to % compared to that in product A or B groups: 162%
P-gp, MRP2 and BCRP
  efflux transporters influencing the intestinal absorption: influenced by P-gp, MRP2 and BCRP
Caco-2 cells
  P app in product C group, % compared to that in product A group: 164%

## O=C(/C=C/c1ccc(O)c(O)c1)O[C@@H]1C[C@@](O)(C(=O)O)C[C@@H](O)[C@@H]1O [Neochlorogenic acid]
[1]; rats
  AUC(0-t): 259 ng·h/mL
[1]; oral product A
  AUC(0-inf): 138 ng·h/mL
  MRT: 5.37 h
  Tmax: 0.167 h
  half-life: 7.63 ± 0.637 h
[1]; oral product C
  AUC(0-inf): 404 ng·h/mL
  MRT: 6.45 h
  Tmax: 0.167 h
  half-life: 8.58 ± 0.467 h
[1]; [2]
  Cmax: 75.7 ± 30.1 ng/mL
[1]; [3]
  Cmax: 181 ± 65 ng/mL
[1]; rats, oral
  AUC 0→t in product C group, increased to % compared to that in product A or B groups: 286%
P-gp, MRP2 and BCRP
  efflux transporters influencing the intestinal absorption: influenced by P-gp, MRP2 and BCRP
Caco-2 cells
  P app in product C group, % compared to that in product A group: 136%

## O=c1c(O[C@@H]2O[C@H](CO)[C@@H](O)[C@H](O)[C@H]2O)c(-c2ccc(O)c(O)c2)oc2cc(O)cc(O)c12 [Isoquercitrin]
[1]; oral product A
  AUC(0-inf): 2.63 ng·h/mL
  MRT: 9.28 h
  Tmax: 0.167 h
  half-life: 7.27 ± 0.438 h
[1]; oral product B
  AUC(0-inf): 3.25 ng·h/mL
  MRT: 8.3 h
  Tmax: 0.333 h
  half-life: 7.85 ± 0.515 h
[1]; oral product C
  AUC(0-inf): 5.51 ng·h/mL
  MRT: 9.25 h
  Tmax: 0.267 h
  half-life: 7.58 ± 0.868 h
[1]; [2]
  Cmax: 0.504 ± 0.351 ng/mL
[1]; [4]
  Cmax: 0.619 ± 0.212 ng/mL
[1]; [3]
  Cmax: 1 ± 0.3 ng/mL
[1]; rats, oral
  bioavailability in product C group compared with that in product A group: no significantly different
  bioavailability in product C group compared with that in product B group: no significantly different
Caco-2 cells
  P app in product C group, % compared to that in product A group: 169%
  P app in product C group, % compared with that in product B group: 234%

## COc1cc(C[C@H]2C(=O)OC[C@@H]2Cc2ccc(OC)c(OC)c2)ccc1O [Arctigenin]
[1]; oral product B
  AUC(0-inf): 4.44 ng·h/mL
  MRT: 9.33 h
  Tmax: 0.333 h
  half-life: 10.4 ± 0.36 h
[1]; oral product C
  AUC(0-inf): 3.99 ng·h/mL
  MRT: 9.4 h
  Tmax: 0.333 h
  half-life: 8.9 ± 0.898 h
[1]; [4]
  Cmax: 0.895 ± 0.166 ng/mL
[1]; [3]
  Cmax: 0.231 ± 0.144 ng/mL
[1]; rats, oral, same dosages administrated
  AUC 0→t in product C group compared with product A or B group: lower significantly
Caco-2 cells
  P app in product C group, % compared with that in product B group: 110%

From article PMC4183595, “Study on the Main Components Interaction from Flos Lonicerae and Fructus Forsythiae and Their Dissolution In Vitro and Intestinal Absorption in Rats” (PLoS ONE, 2014)
